Measured values as given in US6737383B1, “Herbicidal oxadiazolidines” (priority 1999, dated 2004).

Tests used:
bedstraw = experiment: Test B pre/postemergence bedstraw; assay type: in vivo, Galium aparine
Summary of the method: (§1)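 Test chemicals in a non-phytotoxic solvent mixture with surfactant were sprayed preemergence onto planted seeds and postemergence onto plants 2 to 18 cm tall (1- to 4-leaf stage). After twelve to sixteen days in a greenhouse, injury was visually rated against untreated controls from 0 (no effect) to 10 (complete control).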

blackgrass = experiment: Test B pre/postemergence blackgrass; assay type: in vivo, Alopecurus myosuroides
Summary of the method: as §1

surinam grass = experiment: Test B pre/postemergence surinam grass; assay type: in vivo, Brachiaria decumbens
Summary of the method: as §1

corn = experiment: Test B pre/postemergence corn; assay type: in vivo, Zea mays
Summary of the method: as §1

crabgrass = experiment: Test B pre/postemergence crabgrass; assay type: in vivo, Digitaria sanguinalis
Summary of the method: as §1

pigweed = experiment: Test B pre/postemergence pigweed; assay type: in vivo, Amaranthus retroflexus
Summary of the method: as §1

rape = experiment: Test B pre/postemergence rape; assay type: in vivo, Brassica napus
Summary of the method: as §1

soybean = experiment: Test B pre/postemergence soybean; assay type: in vivo, Glycine max
Summary of the method: as §1

sugar beet = experiment: Test B pre/postemergence sugar beet; assay type: in vivo, Beta vulgaris
Summary of the method: as §1

velvetleaf = experiment: Test B pre/postemergence velvetleaf; assay type: in vivo, Abutilon theophrasti
Summary of the method: as §1

wheat = experiment: Test B pre/postemergence wheat; assay type: in vivo, Triticum aestivum
Summary of the method: as §1

wild oat = experiment: Test B pre/postemergence wild oat; assay type: in vivo, Avena fatua
Summary of the method: as §1

purple nutsedge = experiment: Test B pre/postemergence purple nutsedge; assay type: in vivo, Cyperus rotundus
Summary of the method: as §1

rice = experiment: Test B flood test rice; assay type: in vivo, Oryza sativa
Summary of the method: (§2)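 Each value is a visual injury score relative to controls, with 10 meaning complete control and 0 no effect. Evaluation took place twelve to sixteen days after the 2-leaf-stage plants were treated and kept in the greenhouse.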

smallflower flatsedge = experiment: Test B flood test smallflower flatsedge; assay type: in vivo, Cyperus difformis
Summary of the method: as §2

duck salad = experiment: Test B flood test duck salad; assay type: in vivo, Heteranthera limosa
Summary of the method: as §2

[1] = Postemergence, Rate 62 g/ha, scale 0 to 10, 0 is no effect, 10 is complete control
[2] = Preemergence, Rate 62 g/ha, scale 0 to 10 (0 no effect, 10 complete control)
[3] = Preemergence, Rate 125 g/ha, scale of 0 to 10 where 0 is no effect and 10 is complete control
[4] = Preemergence, Rate 250 g/ha, scale 0 to 10 (0 no effect, 10 complete control)
[5] = Preemergence, Rate 500 g/ha, scale of 0 to 10 where 0 is no effect and 10 is complete control
[6] = Postemergence, Rate 125 g/ha, scale of 0 to 10 where 0 is no effect and 10 is complete control
[7] = Postemergence, Rate 250 g/ha, scale of 0 to 10, 0 is no effect, 10 is complete control
[8] = Postemergence, Rate 500 g/ha, scale of 0 to 10 where 0 is no effect and 10 is complete control
[9] = Rate 62 g/ha, flood test species, Pre-emergence, visual evaluation after twelve to sixteen days
[10] = Rate 125 g/ha, under heading Pre-emergence, flood test species, visual evaluation after twelve to sixteen days
[11] = Rate 250 g/ha, Pre-emergence (flood test species), scale 0 to 10, 0 is no effect, 10 is complete control
[12] = Rate 500 g/ha, Pre-emergence section of Table B, 0 to 10 scale (0 no effect, 10 complete control)

CC(C)N(C(=O)n1oc(=O)n(CC2CCCCO2)c1=O)c1ccc(F)cc1 (stereo not drawn) [Compound 624]
Plant response rating, Bedstraw (bedstraw; [1]): 0
Bedstraw plant response rating (bedstraw; [2]): 0
Bedstraw plant response rating (bedstraw; [3]): 0
Plant response rating, Bedstraw (bedstraw; [4]): 0
Plant response rating, Bedstraw (bedstraw; [5]): 3
Plant response rating, Blackgrass (blackgrass; [1]): 4
Plant response rating, Blackgrass (blackgrass; [6]): 5
Blackgrass plant response rating (blackgrass; [7]): 8
Plant response rating, Blackgrass (blackgrass; [8]): 9
Blackgrass plant response rating (blackgrass; [2]): 1
Blackgrass plant response rating (blackgrass; [3]): 8
Plant response rating, Blackgrass (blackgrass; [4]): 8
Plant response rating, Blackgrass (blackgrass; [5]): 9
Plant response rating, B. signalgrass (surinam grass; [1]): 4
Plant response rating, B. signalgrass (surinam grass; [6]): 7
B. signalgrass plant response rating (surinam grass; [7]): 7
Plant response rating, B. signalgrass (surinam grass; [8]): 8
B. signalgrass plant response rating (surinam grass; [2]): 3
B. signalgrass plant response rating (surinam grass; [3]): 6
Plant response rating, B. signalgrass (surinam grass; [4]): 6
Plant response rating, B. signalgrass (surinam grass; [5]): 8
Plant response rating, Corn (corn; [1]): 0
Plant response rating, Corn (corn; [6]): 0
Corn plant response rating (corn; [7]): 2
Plant response rating, Corn (corn; [8]): 5
Corn plant response rating (corn; [2]): 0
Corn plant response rating (corn; [3]): 0
Plant response rating, Corn (corn; [4]): 2
Plant response rating, Corn (corn; [5]): 6
Plant response rating, Crabgrass (crabgrass; [1]): 6
Plant response rating, Crabgrass (crabgrass; [6]): 7
Crabgrass plant response rating (crabgrass; [7]): 7
Crabgrass plant response rating (crabgrass; [2]): 7
Plant response rating, Crabgrass (crabgrass; [4]): 9
Plant response rating, Crabgrass (crabgrass; [5]): 9
Plant response rating, Redroot pigweed (pigweed; [1]): 0
Plant response rating, Redroot pigweed (pigweed; [6]): 0
Redroot pigweed plant response rating (pigweed; [7]): 2
Redroot pigweed plant response rating (pigweed; [2]): 0
Redroot pigweed plant response rating (pigweed; [3]): 0
Plant response rating, Redroot pigweed (pigweed; [4]): 3
Plant response rating, Redroot pigweed (pigweed; [5]): 10
Plant response rating, Rape (rape; [1]): 0
Plant response rating, Rape (rape; [6]): 0
Rape plant response rating (rape; [7]): 0
Plant response rating, Rape (rape; [8]): 3
Rape plant response rating (rape; [2]): 0
Rape plant response rating (rape; [3]): 0
Plant response rating, Rape (rape; [4]): 1
Plant response rating, Rape (rape; [5]): 7
Plant response rating, Soybean (soybean; [1]): 2
Plant response rating, Soybean (soybean; [6]): 3
Soybean plant response rating (soybean; [7]): 7
Soybean plant response rating (soybean; [2]): 0
Soybean plant response rating (soybean; [3]): 0
Plant response rating, Soybean (soybean; [4]): 3
Plant response rating, Soybean (soybean; [5]): 7
Plant response rating, Sugarbeets (sugar beet; [1]): 0
Plant response rating, Sugarbeets (sugar beet; [6]): 0
Sugarbeets plant response rating (sugar beet; [7]): 0
Sugarbeets plant response rating (sugar beet; [2]): 0
Sugarbeets plant response rating (sugar beet; [3]): 1
Plant response rating, Sugarbeets (sugar beet; [4]): 7
Plant response rating, Sugarbeets (sugar beet; [5]): 8
Plant response rating, Velvetleaf (velvetleaf; [1]): 0
Plant response rating, Velvetleaf (velvetleaf; [6]): 0
Velvetleaf plant response rating (velvetleaf; [7]): 0
Velvetleaf plant response rating (velvetleaf; [2]): 0
Velvetleaf plant response rating (velvetleaf; [3]): 0
Plant response rating, Velvetleaf (velvetleaf; [4]): 1
Plant response rating, Velvetleaf (velvetleaf; [5]): 8
Plant response rating, Wheat (wheat; [1]): 0
Plant response rating, Wheat (wheat; [6]): 0
Wheat plant response rating (wheat; [7]): 0
Wheat plant response rating (wheat; [2]): 0
Wheat plant response rating (wheat; [3]): 0
Plant response rating, Wheat (wheat; [4]): 6
Plant response rating, Wheat (wheat; [5]): 7
Plant response rating, Wild oats (wild oat; [1]): 0
Plant response rating, Wild oats (wild oat; [6]): 0
Wild oats plant response rating (wild oat; [7]): 0
Wild oats plant response rating (wild oat; [2]): 2
Wild oats plant response rating (wild oat; [3]): 6
Plant response rating, Wild oats (wild oat; [4]): 6
Plant response rating, Wild oats (wild oat; [5]): 6
Plant response rating, Nutsedge (purple nutsedge; [1]): 0
Plant response rating, Nutsedge (purple nutsedge; [6]): 0
Nutsedge plant response rating (purple nutsedge; [7]): 0
Plant response rating, Nutsedge (purple nutsedge; [8]): 3
Nutsedge plant response rating (purple nutsedge; [2]): 0
Nutsedge plant response rating (purple nutsedge; [3]): 0
Plant response rating, Nutsedge (purple nutsedge; [4]): 0
Plant response rating, Nutsedge (purple nutsedge; [5]): 0
Plant response rating, Rice (0 to 10 scale, 0 is no effect, 10 is complete control) (rice; [9]): 0
Rice plant response rating (0 to 10 scale, 0 is no effect, 10 is complete control) (rice; [10]): 0
Rice plant response rating (rice; [11]): 0
Rice plant response rating (rice; [12]): 0
Plant response rating, S. Flatsedge (0 to 10 scale, 0 is no effect, 10 is complete control) (smallflower flatsedge; [9]): 0
S. Flatsedge plant response rating (0 to 10 scale, 0 is no effect, 10 is complete control) (smallflower flatsedge; [10]): 0
S. Flatsedge plant response rating (smallflower flatsedge; [11]): 0
S. Flatsedge plant response rating (smallflower flatsedge; [12]): 0
Plant response rating, Ducksalad (0 to 10 scale, 0 is no effect, 10 is complete control) (duck salad; [9]): 0
Ducksalad plant response rating (0 to 10 scale, 0 is no effect, 10 is complete control) (duck salad; [10]): 0
Ducksalad plant response rating (duck salad; [11]): 0
Ducksalad plant response rating (duck salad; [12]): 0
